Assay [1] has as its system hippocampal excitatory synaptic transmission (fEPSP, perforant path - dentate gyrus). Put plainly: Basal excitatory synaptic transmission (fEPSP amplitude) in the hippocampus of the freely moving rat. As to conditions: for activity on basal excitatory synaptic transmission (in words): Compound X 6 mg/kg ip, physostigmine 0.1 mg/kg ip, drug vs. vehicle, paired t-test; for DRUG FEPSP AMPLITUDE [% OF PRE-VEHICLE BASELINE ± S.E.M.]: ip, Compound X 6.0 mg/kg, physostigmine 0.1 mg/kg, 15 min post-drug period with largest increase. In kind it is in vivo, Sprague-Dawley rat. Here is the method: (§1) Experiments were carried out in freely moving male Sprague-Dawley rats implanted with depth stimulating and recording electrodes in the hippocampus and olfactory cortex to (1) characterize the effect of a compound of Formula 1 ((2R,3S)-2-amino-3-hydroxy-3-(pyridin-4-yl)-1-(pyrrolidin-1-yl)propan-1-one) (“Compound X”) on basal excitatory synaptic transmission, a measure positively associated with behavioral performance and encoding of information; and (2) determine a possible interaction on synaptic transmission when Compound X is coapplied with physostigmine and galantamine—both members of the cholinesterase inhibitor family which has pro-cognitive efficacy in Alzheimer's Disease patients.
(§2) Field excitatory post-synaptic responses (fEPSPs) evoked by electrical stimulation were recorded in freely moving animals with depth electrodes permanently implanted in the hippocampus and olfactory cortex. Experiment 1 compared the effect of one dose level (6 mg/kg ip) of Compound X on hippocampal and cortical fEPSPs with vehicle control data. Experiment 2 compared the effect of Compound X (6 mg/kg ip) combined with either physostigmine (0.1 mg/kg ip) or galantamine (1 mg/kg ip) on hippocampal and cortical fEPSPs with vehicle control data.
(§3) Male Sprague Dawley rats, 3 months of age at the time of surgery, were used. The animals were housed individually and kept in a 12:12 light/dark cycle with food and water available ad libitum.
(§4) Preparation of animals with chronically implanted electrodes followed procedures essentially as described in earlier published work (U. Staubli and J. Scafidi, J. J. Neurosci. 17: 4820-4828 (1997)). For recordings from the hippocampus, the stimulating electrode was placed in the perforant path within the entorhinal cortex, and the recording electrode in the hilus of the hippocampal dentate gyrus. For recording from the olfactory cortex, the stimulating electrode was placed in the olfactory tract and the recording electrode in the layer I of the piriform cortex.
Ten days following recovery from surgery, the animals were acclimated to the recording cage as well as to the attachment of a recording lead to the head stage. Recording sessions began by adjusting current intensities (25-100 μA) and pulse width of the monophasic stimulation pulse (100-250 μsec) to produce a field excitatory postsynaptic potential (fEPSP) that was 50-60% of the maximum amplitude of the population-spike free response which typically ranged between 4 and 8 mV. Recording signals were amplified and filtered with a band pass of 1 Hz to 5 kHz and fed into a PC running specialized software (NacGather) that digitizes measures and stores the evoked responses. […]

Assay [2] deals with excitatory synaptic transmission in the olfactory cortex (fEPSP, olfactory tract - piriform cortex layer I). Put plainly: Basal excitatory synaptic transmission (fEPSP amplitude) in the olfactory cortex of the freely moving rat. The note with it: for activity on basal excitatory synaptic transmission (in words): Compound X 6 mg/kg ip, drug vs. vehicle, paired t-test; for DRUG FEPSP AMPLITUDE [% OF PRE-VEHICLE BASELINE ± S.E.M.]: ip, Compound X 6.0 mg/kg, 15 min post-drug period with largest increase. It is filed as in vivo, Sprague-Dawley rat. Here is the method: as §1, §2, §3, §4
Ten days following recovery from surgery, the animals were acclimated to the recording cage as well as to the attachment of a recording lead to the head stage. Recording sessions began by adjusting current intensities (25-100 μA) and pulse width of the monophasic stimulation pulse (100-250 μsec) to produce a field excitatory postsynaptic potential (fEPSP) that was 50-60% of the maximum amplitude of the population-spike free response which typically ranged between 4 and 8 mV. Recording signals were amplified and filtered with a band pass of 1 Hz to 5 kHz and fed into a PC running specialized software (NacGather) that digitizes measures and stores the evoked responses.
Hippocampal animals (subjects with electrodes implanted into hippocampus) were randomly assigned to one of 3 groups, i.e., Compound X alone, Compound X plus physostigmine, physostigmine alone. Cortical animals (subjects with electrodes implanted into olfactory cortex) were randomly assigned to 5 groups, i.e., Compound X alone, Compound X plus physostigmine, physostigmine alone, Compound X plus galantamine, galantamine alone. […] If changes in baseline greater than +5% were observed, the experiment was terminated for that day. All other animals were injected with test compound 20 min after vehicle, and fEPSP recording was continued for at least 2 hours, but 4 hrs if the drug effect was still present at 2 hrs. In cases where animals were used repeatedly, a minimum of three washout days followed each test session. Responses were sampled once every 20 sec throughout the experiment.
Compound X was kept frozen at approximately −20° C. in a freezer as a powder. Immediately prior the powder was dissolved in double distilled water (ddw) to make a 12 mg/ml stock and then diluted by 50% for injection at 6 mg/kg at a final volume of 1 ml/kg.
Physostigmine (eserine hemisulfate) was purchased from Sigma Aldrich and dissolved in ddw to make a 1 mg/ml stock solution. […]

As for `N[C@@H](C(=O)N1CCCC1)[C@@H](O)c1ccncc1` [Compound X, (2R,3S)-2-amino-3-hydroxy-3-(pyridin-4-yl)-1-(pyrrolidin-1-yl)propan-1-one], the “activity on basal excitatory synaptic transmission (in words)” value (shortened to “activity”) in assay [1], in assay [2] (galantamine 1 mg/kg ip) and in assay [2] (physostigmine 0.1 mg/kg ip) was “significant facilitatory activity” in each case. Also, the “DRUG FEPSP AMPLITUDE [% OF PRE-VEHICLE BASELINE ± S.E.M.]” value in assay [1] is 7.86 ± 2.98 % OF PRE-VEHICLE BASELINE; in assay [2] (galantamine 1.0 mg/kg), 10.67 + 1.67 % OF PRE-VEHICLE BASELINE; in assay [2] (physostigmine 0.1 mg/kg), 10.67 + 1.67 % OF PRE-VEHICLE BASELINE.

With `COc1ccc2c3c1O[C@H]1C[C@@H](O)C=C[C@@]31CCN(C)C2` [Galantamine, reference compound], the “activity” value in assay [2] (galantamine 1 mg/kg ip) is “inactive”. Also, in assay [2] (galantamine 1.0 mg/kg), the “DRUG FEPSP AMPLITUDE [% OF PRE-VEHICLE BASELINE ± S.E.M.]” value is listed as 3.13 + 1.73 % OF PRE-VEHICLE BASELINE.

For the compound `CNC(=O)Oc1ccc2c(c1)[C@]1(C)CCN(C)[C@@H]1N2C` [Physostigmine, reference compound], the “activity” value in assay [1] was “inactive”. In addition, the “DRUG FEPSP AMPLITUDE [% OF PRE-VEHICLE BASELINE ± S.E.M.]” value is on record as 2.33 + 2.91 % OF PRE-VEHICLE BASELINE in assay [1] and 5.30 + 0.69 % OF PRE-VEHICLE BASELINE in assay [2] (physostigmine 0.1 mg/kg).

(Values after patent US9492543B2, “Compositions for treating cognitive disorders” (priority 2009, dated 2016).)
